The subject of the experiment is Plasmodium berghei. The experiment is described as follows: Luciferase/luciferin-expressing antifolate-resistant parasites were used to infect a culture of HepG2 cells that were pre-incubated with compounds. Infected hepatocytes emit light due to the luciferase reaction. Assay results are presented as the percent inhibition of light emission compared to control. […]. In kind it is functional. The settings on record: sporozoite; for IC90: read-out: LUCIFERASE INFECTION ASSAY - IC90.

The structures appear in SMILES notation. pIC50: −log10 of the molar value. Bounds are passed on as bounds.

As a reminder, the pIC50 is −log10 of the IC50, conventionally taken in molar units. The IC90 is the concentration at which the effect reaches the 90% level. Consider `N#Cc1c(N2CCCC(O)C2)nc(N)c2c(N)nc3c(c12)CC(=O)N3C12CC3CC(CC(C3)C1)C2` (stereo not given), for which the 90% effect concentration (IC90) was greater than 10 µM. Also, the pIC50 (HEPG2TOX_HILL_SLOPE 8.91, HEPG2TOX_R_SQUARED 0.422, PBLUC_HILL_SLOPE 4.43, PBLUC_R_SQUARED 0.134, read-out: LUCIFERASE INFECTION ASSAY - IC50) is 5.17.

Consider `CCCCCCCCC/C(=N\O)c1ccccn1`, for which the IC90 was found to be 11.9 µM. Further, the pIC50 (HEPG2TOX_HILL_SLOPE 8.74, HEPG2TOX_R_SQUARED 0.63, PBLUC_HILL_SLOPE 40.5, PBLUC_R_SQUARED 0.34, read-out: LUCIFERASE INFECTION ASSAY - IC50) is 4.95.

For `Cc1cc(C(=O)NNC(=O)c2ccc3ccccc3n2)c2cnn(Cc3cccs3)c2n1`, the 90% effect concentration (IC90) came out at 9.16 µM. Also, the pIC50 (HEPG2TOX_HILL_SLOPE 8.79, HEPG2TOX_R_SQUARED 0.448, PBLUC_HILL_SLOPE 5.17, PBLUC_R_SQUARED 0.697, read-out: LUCIFERASE INFECTION ASSAY - IC50) was 5.22.

As for `CC(C)c1ccc(C(=O)N2CCC(CCCC3CCN(C(=O)c4ccc(C(C)C)cc4)CC3)CC2)cc1`, the IC90 was greater than 10 µM. Besides, the pIC50 (HEPG2TOX_HILL_SLOPE 8.83, HEPG2TOX_R_SQUARED 0.537, read-out: LUCIFERASE INFECTION ASSAY - IC50) is less than 5.00.

On to `Cc1ccc(-c2nc3c(s2)CN(C(=O)c2ccc4c(c2)OCO4)CC3)cc1`, for which the IC90 is greater than 8.72 µM. For the same compound, the pIC50 (HEPG2TOX_HILL_SLOPE 8.84, HEPG2TOX_R_SQUARED 0.538, PBLUC_HILL_SLOPE 2.18, PBLUC_R_SQUARED 0.0909, read-out: LUCIFERASE INFECTION ASSAY - IC50) is 5.15.

As for `O=C1/C(=C/c2ccc(F)cc2)COC/C1=C\c1ccc(F)cc1`, the IC90 is greater than 10.6 µM. Moreover, the pIC50 (HEPG2TOX_HILL_SLOPE 8.86, HEPG2TOX_R_SQUARED 0.951, read-out: LUCIFERASE INFECTION ASSAY - IC50) was less than 4.97.

Turning to `Cc1ccccc1-c1noc(-c2cc(-c3cccs3)[nH]n2)n1`, the IC90 is greater than 10 µM. The pIC50 (HEPG2TOX_HILL_SLOPE 8.85, HEPG2TOX_R_SQUARED 0.0358, read-out: LUCIFERASE INFECTION ASSAY - IC50) was less than 5.00.

On to `C/C(=N\Nc1ccnc2cc(Cl)ccc12)c1ccc(-n2ccnc2)cc1`, for which the IC90 was greater than 10 µM. Besides, the pIC50 (HEPG2TOX_HILL_SLOPE 8.87, HEPG2TOX_R_SQUARED 0.252, read-out: LUCIFERASE INFECTION ASSAY - IC50) is less than 5.00.

With `Brc1cnc2nc(-c3ccccc3)[nH]c2c1`, the IC90 was 7.03 µM. For the same compound, the pIC50 (HEPG2TOX_HILL_SLOPE 8.76, HEPG2TOX_R_SQUARED 0.602, PBLUC_HILL_SLOPE 4.6, PBLUC_R_SQUARED 0.128, read-out: LUCIFERASE INFECTION ASSAY - IC50) was 5.36.

As for `C/N=c1\scc(-c2ccc3c(c2)NC(=O)CO3)n1/N=C/c1cc(Br)c(O)c(OC)c1`, the IC90 came to 7.81 µM. The pIC50 (HEPG2TOX_HILL_SLOPE 8.72, HEPG2TOX_R_SQUARED 0.934, PBLUC_HILL_SLOPE 4.3, PBLUC_R_SQUARED 0.314, read-out: LUCIFERASE INFECTION ASSAY - IC50) is 5.33.

For the compound `Cc1cccc(C(=O)Nc2nc3ccccn3c2C(=O)NC2CCCC2)c1`, the IC90 was determined as 4.69 µM. Moreover, the pIC50 (HEPG2TOX_HILL_SLOPE 8.83, HEPG2TOX_R_SQUARED 0.45, PBLUC_HILL_SLOPE 2.41, PBLUC_R_SQUARED 0.415, read-out: LUCIFERASE INFECTION ASSAY - IC50) was 5.73.

`COc1cc(-c2cnc3cnc(-c4ccccc4N(C)C)cn23)ccc1O`: the IC90 was greater than 9.16 µM. For the same compound, the pIC50 (HEPG2TOX_HILL_SLOPE 8.81, HEPG2TOX_R_SQUARED 0.374, PBLUC_HILL_SLOPE 9.99, PBLUC_R_SQUARED 0.0967, read-out: LUCIFERASE INFECTION ASSAY - IC50) was 5.11.

As for `CC(C)Oc1cccc(Nc2nccc3[nH]c(-c4ccccc4)cc23)c1`, the IC90 was found to be 7.93 µM. Moreover, for the setting “HEPG2TOX_HILL_SLOPE 8.91, HEPG2TOX_R_SQUARED 0.686, PBLUC_HILL_SLOPE 1.92, PBLUC_R_SQUARED 0.493, read-out: LUCIFERASE INFECTION ASSAY - IC50”, the pIC50 was 5.60.

As to `Cc1ccc(CN2CCC3(CC2)C(=O)N(C(C)C)C(=O)N3CCc2ccccc2)o1`, the IC90 is greater than 8.06 µM. Where the note is “HEPG2TOX_HILL_SLOPE 8.85, HEPG2TOX_R_SQUARED 0.516, read-out: LUCIFERASE INFECTION ASSAY - IC50”, the pIC50 was less than 5.09.

Take `COc1ccc(-c2nonc2NC(=O)c2sc3cc(C)ccc3c2Cl)cc1`: the IC90 was found to be 6.5 µM. Under “HEPG2TOX_HILL_SLOPE 8.9, HEPG2TOX_R_SQUARED 0.644, PBLUC_HILL_SLOPE 6.34, PBLUC_R_SQUARED 0.0844, read-out: LUCIFERASE INFECTION ASSAY - IC50”, the pIC50 is 5.34.

In the case of `CC1Cc2ccccc2N1C(=O)c1cn(-c2ccccc2)nc1-c1ccc(F)cc1` (stereo not given), the IC90 turned out to be 9.94 µM. The pIC50 (HEPG2TOX_HILL_SLOPE 8.75, HEPG2TOX_R_SQUARED 0.907, PBLUC_HILL_SLOPE 3.93, PBLUC_R_SQUARED 0.478, read-out: LUCIFERASE INFECTION ASSAY - IC50) is 5.25.

With `Cc1cc(=O)[nH]n(-c2ccccc2)c1=O`, the concentration for an effect of 90% (IC90) stood at 8.7 µM. Also, under “HEPG2TOX_HILL_SLOPE 8.84, HEPG2TOX_R_SQUARED 0.75, PBLUC_HILL_SLOPE 7.32, PBLUC_R_SQUARED 0.521, read-out: LUCIFERASE INFECTION ASSAY - IC50”, the negative logarithm of the IC50 (pIC50) was 5.19.

For the compound `Oc1c(Cl)cc(Cl)cc1/C=N/NC(=S)NC1CCCCC1`, the IC90 is 9.37 µM. In addition, where the note is “HEPG2TOX_HILL_SLOPE 8.84, HEPG2TOX_R_SQUARED 0.571, PBLUC_HILL_SLOPE 15.3, PBLUC_R_SQUARED 0.312, read-out: LUCIFERASE INFECTION ASSAY - IC50”, the pIC50 was 5.09.

For `Cc1ccc(-c2cc(=O)n(-c3ccc(F)cc3)[nH]2)cc1`, the IC90 was determined as 11.6 µM. In addition, the pIC50 (HEPG2TOX_HILL_SLOPE 8.74, HEPG2TOX_R_SQUARED 0.98, PBLUC_HILL_SLOPE 2.08, PBLUC_R_SQUARED 0.732, read-out: LUCIFERASE INFECTION ASSAY - IC50) was 5.39.

Regarding `COc1cc(/C=C(\C#N)c2cccn2C)cc(OC)c1OC`, the IC90 was greater than 11.1 µM. For the same compound, where the note is “HEPG2TOX_HILL_SLOPE 8.79, HEPG2TOX_R_SQUARED 0.806, read-out: LUCIFERASE INFECTION ASSAY - IC50”, the pIC50 is less than 4.95.

With `CN1CCN(c2ccc(-c3cn4c(-c5ccc6c(ccn6C)c5)cnc4cn3)cn2)CC1`, the IC90 is greater than 7.79 µM. Also, under “HEPG2TOX_HILL_SLOPE 8.77, HEPG2TOX_R_SQUARED 0.447, PBLUC_HILL_SLOPE 3.78, PBLUC_R_SQUARED 0.492, read-out: LUCIFERASE INFECTION ASSAY - IC50”, the pIC50 is 5.35.

With `CCN1/C(=C\C(=O)c2ccccc2Oc2ccccc2)C(C)(C)c2c1ccc1ccccc21`, the IC90 came to 8.43 µM. For the setting “HEPG2TOX_HILL_SLOPE 8.78, HEPG2TOX_R_SQUARED 0.227, PBLUC_HILL_SLOPE 3.21, PBLUC_R_SQUARED 0.612, read-out: LUCIFERASE INFECTION ASSAY - IC50”, the pIC50 is 5.37.

On to `O=C(NCCO)c1cccc(-c2cn3c(-c4ccc(Cl)cc4)cnc3cn2)c1`, for which the 90% effect concentration (IC90) is 3.17 µM. Moreover, for the setting “HEPG2TOX_HILL_SLOPE 8.8, HEPG2TOX_R_SQUARED 0.456, PBLUC_HILL_SLOPE 3.73, PBLUC_R_SQUARED 0.895, read-out: LUCIFERASE INFECTION ASSAY - IC50”, the pIC50 was 5.75.

In the case of `Cc1cc2oc(=O)cc(COC(=O)c3ccccc3NCCO)c2cc1C`, the IC90 turned out to be 5.07 µM. In addition, the pIC50 (HEPG2TOX_HILL_SLOPE 8.75, HEPG2TOX_R_SQUARED 0.762, PBLUC_HILL_SLOPE 95.5, PBLUC_R_SQUARED 0.164, read-out: LUCIFERASE INFECTION ASSAY - IC50) is 5.31.

Turning to `C=CCn1c(SCc2ccccn2)nc2sccc2c1=O`, the IC90 is greater than 10 µM. In addition, the pIC50 (HEPG2TOX_HILL_SLOPE 8.76, HEPG2TOX_R_SQUARED 0.722, PBLUC_HILL_SLOPE 2.66, PBLUC_R_SQUARED 0.469, read-out: LUCIFERASE INFECTION ASSAY - IC50) was 5.08.

Turning to `CC(=O)Nc1ccc(-c2cnc3ccc(-c4cccc(F)c4)nn23)cc1`, the IC90 came out at 3.53 µM. For the same compound, where the note is “HEPG2TOX_HILL_SLOPE 8.87, HEPG2TOX_R_SQUARED 0.791, PBLUC_HILL_SLOPE 12.1, PBLUC_R_SQUARED 0.742, read-out: LUCIFERASE INFECTION ASSAY - IC50”, the pIC50 was 5.53.

As for `OCCCNc1nn2c(-c3cccc(Cl)c3)cnc2s1`, the IC90 is greater than 10.7 µM. For the same compound, the pIC50 (HEPG2TOX_HILL_SLOPE 8.79, HEPG2TOX_R_SQUARED 0.819, PBLUC_HILL_SLOPE 13.4, PBLUC_R_SQUARED 0.184, read-out: LUCIFERASE INFECTION ASSAY - IC50) is 5.01.

Consider `Cc1ccc(N2C(=O)C=CC2=O)c(C)c1`, for which the IC90 was 6.84 µM. Further, the pIC50 (HEPG2TOX_HILL_SLOPE 8.83, HEPG2TOX_R_SQUARED 0.656, PBLUC_HILL_SLOPE 7.12, PBLUC_R_SQUARED 0.655, read-out: LUCIFERASE INFECTION ASSAY - IC50) was 5.30.

`COc1cc(/C=C2\SC(=O)N(CCNC(=O)c3cnccn3)C2=O)ccc1OC(F)F`: the IC90 was greater than 10 µM. Moreover, the pIC50 (HEPG2TOX_HILL_SLOPE 8.8, HEPG2TOX_R_SQUARED 0.871, PBLUC_HILL_SLOPE 1.47, PBLUC_R_SQUARED 0.589, read-out: LUCIFERASE INFECTION ASSAY - IC50) was less than 5.00.

On to `Fc1ccc(N/N=C/Cc2nnnn2-c2ccccc2)cc1`, for which the IC90 is greater than 11.1 µM. Moreover, the pIC50 (HEPG2TOX_HILL_SLOPE 8.77, HEPG2TOX_R_SQUARED 0.625, PBLUC_HILL_SLOPE 4.51, PBLUC_R_SQUARED 0.347, read-out: LUCIFERASE INFECTION ASSAY - IC50) was 5.10.

Values taken from ChEMBL document CHEMBL4483862, “Open-source discovery of chemical leads for next-generation chemoprotective antimalarials” (2018).
